Data taken from ChEMBL document CHEMBL3867482, “Design and synthesis of water soluble β-aminosulfone analogues of SCH 900229 as γ-secretase inhibitors” (Bioorg Med Chem Lett, 2016).

What was measured:
[1] = test system: Mus musculus; assay: Antialzheimer activity in B6C3F1 mouse assessed as amyloid beta 40 level in plasma at 10 mg/kg, po administered as single dose after 3 hrs relative to control; assay type: functional
[2] = test system: Mus musculus; assay: Antialzheimer activity in B6C3F1 mouse assessed as amyloid beta 40 level in cortex at 10 mg/kg, po administered as single dose after 3 hrs relative to control; assay type: functional
[3] = Inhibition of gamma-secretase in HEK293 cell membranes expressing human APP Swedish/London double mutant assessed as reduction in amyloid beta 40 formation after 1 hr by electrochemiluminescence based immunoassay
[4] = target: T1, Cytochrome P450 3A4 (Homo sapiens, UniProt P08684); assay: Inhibition of CYP3A4 in human liver microsomes after 30 secs by LC/MS/MS analysis; assay type: ADME
[5] = target: Cytochrome P450 2C9 (Homo sapiens, UniProt P11712); assay: Inhibition of CYP2C9 in human liver microsomes after 30 secs by LC/MS/MS analysis; assay type: ADME
[6] = target: Cytochrome P450 2D6 (Homo sapiens, UniProt P10635); assay: Inhibition of CYP2D6 in human liver microsomes after 30 secs by LC/MS/MS analysis; assay type: ADME
[7] = target: T1, Cytochrome P450 3A4; assay: Inhibition of CYP3A4 in human liver microsomes preincubated for 30 mins after 30 secs by LC/MS/MS analysis; assay type: ADME
[8] = Clearance in human hepatocytes assessed per million cells by HPLC/atmospheric pressure chemical ionization/MS analysis; assay type: ADME, cell-based, Hepatocyte; conditions: read-out: CLH
[9] = Clearance in rat hepatocytes assessed per million cells by HPLC/atmospheric pressure chemical ionization/MS analysis; assay type: ADME, cell-based, Hepatocyte; conditions: read-out: CLH
[10] = Clearance in dog hepatocytes assessed per million cells by HPLC/atmospheric pressure chemical ionization/MS analysis; assay type: ADME, cell-based, Canis lupus familiaris, Hepatocyte; conditions: read-out: CLH
[11] = Clearance in monkey hepatocytes assessed per million cells by HPLC/atmospheric pressure chemical ionization/MS analysis; assay type: ADME, cell-based, Macaca mulatta, Hepatocyte; conditions: rhesus monkey, read-out: CLH
[12] = AUC (0 to 6 hrs) in mouse at 10 mg/kg, po by LC/MS/MS analysis; assay type: ADME, organism-based; set-up: time < 6 hr, dose 10 mg/kg, route oral; conditions: in vivo
[13] = Ratio of drug level in brain to plasma in mouse at 6 hrs; assay type: ADME, organism-based; conditions: brain and plasma, read-out: BPR
[14] = target: T2, hERG (KCNH2) (Homo sapiens, UniProt Q12809); assay: Inhibition of human ERG at 10 uM by thallium flux assay
[15] = target: T2, hERG (KCNH2); assay: Inhibition of human ERG at 1 uM by Thallium flux assay
[16] = test system: Mus musculus; assay: Antialzheimer activity in B6C3F1 mouse assessed as reduction in amyloid beta 40 levels in plasma at 30 mg/kg, po after 6 hrs; assay type: functional; set-up: scale not given: the % may be the effect or the level left
[17] = test system: Mus musculus; assay: Antialzheimer activity in B6C3F1 mouse assessed as reduction in amyloid beta 40 levels in plasma at 30 mg/kg, po after 12 hrs; assay type: functional; set-up: scale not given: the % may be the effect or the level left
[18] = test system: Mus musculus; assay: Antialzheimer activity in B6C3F1 mouse assessed as amyloid beta 40 levels in plasma at 30 mg/kg, po after 24 hrs; assay type: functional
[19] = test system: Mus musculus; assay: Antialzheimer activity in B6C3F1 mouse assessed as reduction in amyloid beta 40 levels in cortex at 30 mg/kg, po after 6 hrs; assay type: functional; set-up: scale not given: the % may be the effect or the level left
[20] = test system: Mus musculus; assay: Antialzheimer activity in B6C3F1 mouse assessed as reduction in amyloid beta 40 levels in cortex at 30 mg/kg, po after 12 hrs; assay type: functional; set-up: scale not given: the % may be the effect or the level left
[21] = test system: Mus musculus; assay: Antialzheimer activity in B6C3F1 mouse assessed as reduction in amyloid beta 40 levels in cortex at 30 mg/kg, po after 24 hrs; assay type: functional; set-up: scale not given: the % may be the effect or the level left
[22] = Dissociation constant, pKa of the compound; assay type: physicochemical
[23] = Drug metabolism in rat assessed as N-demethylation; assay type: ADME
[24] = Drug metabolism in rat assessed as beta-elemination; assay type: ADME
[25] = Kinetic solubility of compound; assay type: physicochemical; conditions: read-out: Kinetic_solubility

T1 sequence (P08684 whole entry): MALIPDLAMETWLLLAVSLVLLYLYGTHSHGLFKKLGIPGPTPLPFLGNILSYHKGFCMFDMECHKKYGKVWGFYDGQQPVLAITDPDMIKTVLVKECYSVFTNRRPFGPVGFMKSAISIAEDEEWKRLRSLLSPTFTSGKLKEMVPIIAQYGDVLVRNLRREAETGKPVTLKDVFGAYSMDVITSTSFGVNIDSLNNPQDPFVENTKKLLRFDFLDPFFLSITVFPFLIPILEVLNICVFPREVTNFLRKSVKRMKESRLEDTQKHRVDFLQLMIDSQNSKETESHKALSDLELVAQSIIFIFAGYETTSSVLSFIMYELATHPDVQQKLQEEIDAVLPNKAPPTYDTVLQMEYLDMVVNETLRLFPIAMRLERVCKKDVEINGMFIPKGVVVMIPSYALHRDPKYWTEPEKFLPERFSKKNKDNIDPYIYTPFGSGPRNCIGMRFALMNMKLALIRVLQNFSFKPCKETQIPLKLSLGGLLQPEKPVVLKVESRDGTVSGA
Sequence of Cytochrome P450 2C9 (P11712 whole entry): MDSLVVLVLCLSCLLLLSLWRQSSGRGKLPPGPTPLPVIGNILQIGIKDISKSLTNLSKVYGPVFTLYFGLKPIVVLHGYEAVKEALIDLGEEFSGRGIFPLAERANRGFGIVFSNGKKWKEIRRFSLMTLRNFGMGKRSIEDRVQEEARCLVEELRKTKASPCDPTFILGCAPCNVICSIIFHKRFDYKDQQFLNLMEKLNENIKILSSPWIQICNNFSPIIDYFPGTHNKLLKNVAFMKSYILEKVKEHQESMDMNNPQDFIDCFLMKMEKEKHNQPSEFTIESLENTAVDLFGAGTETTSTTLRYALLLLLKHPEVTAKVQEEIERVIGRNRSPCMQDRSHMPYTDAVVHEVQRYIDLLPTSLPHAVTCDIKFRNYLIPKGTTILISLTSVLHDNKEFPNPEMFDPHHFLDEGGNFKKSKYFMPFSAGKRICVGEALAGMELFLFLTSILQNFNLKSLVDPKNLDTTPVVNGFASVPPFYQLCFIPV
T2 sequence (Q12809 whole entry): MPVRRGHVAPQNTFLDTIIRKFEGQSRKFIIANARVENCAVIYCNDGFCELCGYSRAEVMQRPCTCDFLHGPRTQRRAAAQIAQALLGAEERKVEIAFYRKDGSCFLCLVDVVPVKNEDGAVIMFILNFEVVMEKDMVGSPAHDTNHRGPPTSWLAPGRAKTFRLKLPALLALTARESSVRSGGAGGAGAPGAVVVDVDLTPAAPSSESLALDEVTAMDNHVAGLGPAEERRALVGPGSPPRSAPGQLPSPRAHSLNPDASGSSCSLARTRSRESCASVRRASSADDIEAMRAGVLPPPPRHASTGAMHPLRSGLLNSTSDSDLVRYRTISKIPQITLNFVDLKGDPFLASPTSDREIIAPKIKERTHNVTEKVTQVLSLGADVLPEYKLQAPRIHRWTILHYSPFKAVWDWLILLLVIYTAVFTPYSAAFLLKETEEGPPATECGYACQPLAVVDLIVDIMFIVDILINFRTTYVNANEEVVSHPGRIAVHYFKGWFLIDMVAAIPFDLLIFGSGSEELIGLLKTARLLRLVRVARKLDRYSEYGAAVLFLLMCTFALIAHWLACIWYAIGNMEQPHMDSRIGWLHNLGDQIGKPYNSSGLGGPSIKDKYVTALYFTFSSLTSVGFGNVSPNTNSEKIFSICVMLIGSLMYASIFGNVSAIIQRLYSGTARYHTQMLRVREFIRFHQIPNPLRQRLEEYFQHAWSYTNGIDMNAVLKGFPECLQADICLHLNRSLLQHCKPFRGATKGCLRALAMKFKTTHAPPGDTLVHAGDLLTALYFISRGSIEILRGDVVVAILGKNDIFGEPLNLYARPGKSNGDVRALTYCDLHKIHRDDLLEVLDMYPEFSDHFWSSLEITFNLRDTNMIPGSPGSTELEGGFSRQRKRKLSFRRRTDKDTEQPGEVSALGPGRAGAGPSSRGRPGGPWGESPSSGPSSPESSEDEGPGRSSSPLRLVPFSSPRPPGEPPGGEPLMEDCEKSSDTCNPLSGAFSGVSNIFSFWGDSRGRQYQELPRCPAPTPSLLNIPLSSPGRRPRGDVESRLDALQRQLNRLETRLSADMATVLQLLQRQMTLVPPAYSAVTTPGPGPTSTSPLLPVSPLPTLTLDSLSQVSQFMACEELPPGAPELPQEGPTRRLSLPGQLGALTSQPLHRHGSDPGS
Sequence of Cytochrome P450 2D6 (P10635 whole entry): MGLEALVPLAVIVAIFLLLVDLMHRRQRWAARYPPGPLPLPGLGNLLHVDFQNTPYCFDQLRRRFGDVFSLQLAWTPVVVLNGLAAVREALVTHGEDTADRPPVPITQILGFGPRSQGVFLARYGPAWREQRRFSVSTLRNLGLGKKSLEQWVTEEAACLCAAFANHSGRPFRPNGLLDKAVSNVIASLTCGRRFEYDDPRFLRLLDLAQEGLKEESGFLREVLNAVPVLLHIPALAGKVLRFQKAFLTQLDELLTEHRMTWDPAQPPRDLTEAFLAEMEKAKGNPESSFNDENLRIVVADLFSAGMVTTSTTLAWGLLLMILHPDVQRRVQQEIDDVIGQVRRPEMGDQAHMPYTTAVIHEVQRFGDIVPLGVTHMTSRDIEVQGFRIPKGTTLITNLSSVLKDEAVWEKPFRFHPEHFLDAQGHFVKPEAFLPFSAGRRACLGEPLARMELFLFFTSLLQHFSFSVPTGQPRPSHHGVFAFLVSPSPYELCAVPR

SMILES | Activity [1] | Activity [2] | IC50 [3] | IC50 [4] | IC50 [5] | IC50 [6] | IC50 [7] | hepatocyte CLint [8] | hepatocyte CLint [9] | hepatocyte CLint [10] | hepatocyte CLint [11] | AUC(0-t) at 6 h [12] | Kp at 6 h [13] | other results
CNCCS(=O)(=O)CC[C@@H]1OCC[C@@]2(S(=O)(=O)c3ccc(Cl)cc3)c3c(F)ccc(F)c3OC[C@@H]12 | -44% | -61% | 0.0041 µM | > 20 µM | > 20 µM | > 20 µM | 8.4 µM | 17.3 µL/min/1e6 cells | 22.3 µL/min/1e6 cells | 11.5 µL/min/1e6 cells | 40.5 µL/min/1e6 cells | 0.532 µM·h | 0.4 | inhibition at 10 µM [14]: 21%; inhibition at 1 µM [15]: 1%; Activity [16]: 93%; Activity [17]: 35%; Activity [18]: 50%; Activity [19]: 73%; Activity [20]: 66%; Activity [21]: 37%; pKa [22]: 7.7; Drug metabolism [23]: Metabolite_Notdetected; Drug metabolism [24]: Metabolite_Notdetected
CNC(C)(C)CCS(=O)(=O)CC[C@@H]1OCC[C@@]2(S(=O)(=O)c3ccc(Cl)cc3)c3c(F)ccc(F)c3OC[C@@H]12 | -51% | -33% | 0.0022 µM | > 20 µM | > 20 µM | > 20 µM | > 20 µM | 20.4 µL/min/1e6 cells | 25.8 µL/min/1e6 cells | 23.5 µL/min/1e6 cells | 55.1 µL/min/1e6 cells | 0.477 µM·h | 1 | solubility kinetic [25]: > 20 µM
